The values below are quoted from earlier work in patent US8454993B2, “Controlled release pharmaceutical compositions of pregabalin” (Lupin Limited, priority 2007, dated 2013).

The conditions of the data set: in water and both basic and acidic aqueous solutions.

`CC(C)C[C@H](CN)CC(=O)O` [Pregabalin, (S)-(+)-3-(aminomethyl)-5-methylhexanoic acid]: the solubility result is “freely soluble”.
